Data published in the NIST ThermoML archive (doi:10.1021/je700260f).

Details: 303.15 K, Liquid, Vibrating tube method

FC(C(F)(F)F)C(F)(F)F [1,1,1,2,3,3,3-heptafluoropropane]
Details	mass density [kg/m3]
19200 kPa	1476.1
19235 kPa	1476.3
19270 kPa	1476.4
19296 kPa	1476.6
19327 kPa	1476.6
19353 kPa	1476.7
19385 kPa	1476.8
19420 kPa	1477
19455 kPa	1477.2
19490 kPa	1477.3
19517 kPa	1477.4
19553 kPa	1477.5
19592 kPa	1477.7
19624 kPa	1477.9
19655 kPa	1478.1
19691 kPa	1478.1
19717 kPa	1478.1
19758 kPa	1478.3
19785 kPa	1478.6
19828 kPa	1478.6
19860 kPa	1478.8
19891 kPa	1478.9
19918 kPa	1479
19949 kPa	1479.2
19981 kPa	1479.4
20016 kPa	1479.4
20044 kPa	1479.6
20076 kPa	1479.9
20107 kPa	1479.9
20152 kPa	1480
20179 kPa	1480.1
20216 kPa	1480.2
20244 kPa	1480.4
20285 kPa	1480.6
20325 kPa	1480.6
20357 kPa	1480.8
20394 kPa	1481
20436 kPa	1481.2
20463 kPa	1481.3
20491 kPa	1481.3
20539 kPa	1481.6
20570 kPa	1481.7
20597 kPa	1481.8
20637 kPa	1481.9
20668 kPa	1482
20701 kPa	1482.2
20728 kPa	1482.4
20769 kPa	1482.6
20802 kPa	1482.7
20880 kPa	1482.9
21049 kPa	1483.6
21082 kPa	1483.8
21120 kPa	1483.8
21152 kPa	1484.1
21193 kPa	1484.2
21217 kPa	1484.4
21250 kPa	1484.5
21278 kPa	1484.6
21322 kPa	1484.7
21360 kPa	1484.9
21388 kPa	1485
21421 kPa	1485.1
21458 kPa	1485.3
21490 kPa	1485.4
21523 kPa	1485.5
21556 kPa	1485.5
21593 kPa	1485.8
21626 kPa	1486
22323 kPa	1488.6
22447 kPa	1489.1
22485 kPa	1489.3
22514 kPa	1489.4
22548 kPa	1489.4
22580 kPa	1489.5
22613 kPa	1489.9
22643 kPa	1489.7
22673 kPa	1490
22707 kPa	1490.1
22733 kPa	1490.2
22771 kPa	1490.3
22801 kPa	1490.4
22828 kPa	1490.5
22863 kPa	1490.7
22899 kPa	1490.8
22934 kPa	1490.9
22959 kPa	1491.1
22997 kPa	1491.3
23032 kPa	1491.4
23062 kPa	1491.6
23102 kPa	1491.5
23128 kPa	1491.8
23159 kPa	1491.7
23186 kPa	1491.9
23217 kPa	1492
23249 kPa	1492.1
23281 kPa	1492.3
23307 kPa	1492.3
23342 kPa	1492.6
23364 kPa	1492.6
23395 kPa	1492.8
23431 kPa	1492.8
23462 kPa	1492.9
23497 kPa	1493
